Experimental data taken from patent US10976307B2, “Whole cell assays and methods” (Celcuity Inc., priority 2012, dated 2021).

Key:
Format in all cases: cell-based, human
[1] = test system: breast cancer patient cells; test: CELx Pathway Shutdown single drug test (Example 4), impedance biosensor CReMS; settings: one patient breast cancer cell sample expected to be a responder
Protocol: Between 6,000-12,000 cells in each well were seeded onto the impedance microplate containing 120 uL standard media with serum. The solution was replaced with media containing no serum to synchronize the cells with respect to physiologic state and pathway stimulation. Twenty microliters of drugs were added to the no-serum media two hours in advance of pathway stimulation. Pathway stimulation was initiated using EC80 doses of receptor ligand (typically 6 nM in 20 uL). The CReMS recording of physiologic change was maintained continuously for several hours from buffer exchange through complete cellular response to the pathway stimulation. The pathway test was performed at 37° C., 5% CO2 and at a relative humidity 75%.
The physiologic change of the cells and drugs tested was measured with an impedance biosensor CReMS and the summary output from the CReMS is recorded in FIG. 4. The correlation between these CELx test results and the third party clinical reference is recorded in FIG. 7.
In those experiments involving anti-proliferative drugs (capecitabine, docetaxel, fluorouracil, paclitaxel, topotecan, cisplatin, and oxiliplatin), the procedures described in Example 2 were utilized. In those experiments involving a combination of drugs, the procedures described in Example 3 were utilized. The list of patient cells and the drug tested with the cells is characterized in FIG. 4.

[2] = test system: Patient B1 HER2 overexpressing breast cancer cells; test: CELx Pathway Shutdown test, impedance biosensor CReMS, EGF stimulation; settings: drug added two hours before EGF pathway stimulation, compared to stimulation with no drug
Text: The change in impedance for a particular well is proportional to the number of cells and type of attachment the cells have with the impedance microplate. Changes in impedance indicate a response to perturbation of these small cell populations.
Prior to addition to the impedance microplate, the cells were removed from their growth container with versene, counted, and re-suspended in media without serum or other growth factors.
The solution was replaced with media containing no serum to synchronize the cells with respect to physiologic state and pathway stimulation. Twenty microliters of drugs were added to the no-serum media two hours in advance of pathway stimulation.

[3] = test system: Patient C2 colon cancer cells; test: CELx Combination test, impedance biosensor CReMS; settings: Patient C2 cells (printed Patient 2), single drug
Protocol: The physiologic change of the C1 and C2 cells during the test was measured with an impedance biosensor CReMS and the output from the CReMS is recorded in FIGS. 3A and 3B.
Between 6,000-12,000 cells in each well were seeded into the impedance microplate containing 120 uL settling media with serum. The solution was replaced with media containing no serum to synchronize the cells with respect to physiologic state. […] The CReMS recording of physiologic change was maintained continuously from when the cells were first seeded on the microplate through complete cellular response, which was between 48-72 hours. The test was performed at 37° C., 5% CO2 and at 75% relative humidity.

[4] = test system: Patient B2 breast cancer cells; test: CELx Anti-Proliferative test, impedance biosensor CReMS; settings: continuous recording
Protocol: (§1) A CELx Anti-Proliferative test was performed using cells from two breast cancer patients (Patients B1 and B2) and the drug Paclitaxel. The physiologic change of the Bland B2 cells during the test was measured with an impedance biosensor CReMS and the output from the CReMS is recorded in FIGS. 2A and 2B. The comparison of the CELx test results and the third party clinical reference is recorded in FIG. 2C.
(§2) The CReMS, microplate, reagents, and buffers used in Example 1 are the same as those employed in Example 2, except for the therapeutic agent tested. In Example 2, the therapeutic agent, paclitaxel, was tested. Paclitaxel was purchased from Selleck Chemicals (TX, USA).
(§3) Between 6,000-12,000 cells in each well were seeded onto the impedance microplate containing 120 uL settling media with serum. Forty microliters of the drug paclitaxel were added to one set each of the B1 and B2 cells; another control set of B1 and B2 cells received no drug. The CReMS recording of physiologic change was maintained continuously from when the cells were first seeded on the microplate through complete cellular response, which was between 48-72 hours. The test was performed at 37° C., 5% CO2 and at 75% relative humidity.

[5] = test system: Patient B1 breast cancer cells; test: as above; settings: continuous recording throughout the test period, untreated control cells
Protocol: as §1, §2, §3

COc1cc2ncnc(Nc3ccc(F)c(Cl)c3)c2cc1OCCCN1CCOCC1 [gelfitinib, gefitinib]
response in the CReMS testing [1]: did not show a response

CS(=O)(=O)CCNCc1ccc(-c2ccc3ncnc(Nc4ccc(OCc5cccc(F)c5)c(Cl)c4)c3c2)o1 [lapatinib, Lapatinib]
change (decrease) of cell index of the test cells after drug added [2]: over 50%

CCc1c2c(nc3ccc(OC(=O)N4CCC(N5CCCCC5)CC4)cc13)-c1cc3c(c(=O)n1C2)COC(=O)[C@]3(O)CC [irinotecan, Irinotecan]
responsiveness to each individual drug [3]: responsive

CC(=O)O[C@H]1C(=O)[C@@]2(C)[C@H]([C@H](OC(=O)c3ccccc3)[C@]3(O)C[C@H](OC(=O)[C@H](O)[C@@H](NC(=O)c4ccccc4)c4ccccc4)C(C)=C1C3(C)C)[C@]1(OC(C)=O)CO[C@@H]1C[C@@H]2O [Paclitaxel]
time after which CReM output reverses (test cells begin proliferating, no longer responsive) [4]: roughly 24 hours | responsiveness: decrease in CReM output compared to control cells ([4]; untreated control cells): initial responsiveness | responsiveness: decrease in CReM output compared to control cells [5]: immediate and continuous responsiveness
